Data taken from US20070154567A1, “Use of mercury to treat cancer” (priority 2006, published 2007).
“And” between values parts separate entries of the source, which are not always exact repeats. Identical values can stand only once.

Test system: non-metastatic osteosarcoma on distal right radius
Assay: Oral inorganic mercury (II) treatment of a pet Rottweiler: blood data and clinical follow-up
Format: in vivo, dog
Parameters: MCV / MCH / Neutrophils, absolute / Bands / Lymphocytes, absolute / Monocytes, absolute / Eosinophils, absolute / Basophils, absolute: unit not given here
Text: An 8 year old, 108 lbs female Rottweiler, was diagnosed with non-metastatic osteosarcoma on distal right radius.
Earlier cisplatin chemotherapy was attempted, but was stopped due to unacceptable side effects one month before the inorganic mercury treatment. Prior to treatment, the dog had high alkaline phosphatase (ALP) level that had been rising as disease progressed (compare Day (−57) and Day 1 in Table 2). ALP is a known progression marker for osteosarcoma (Kirpensteijn et al., 2002, Vet Pathol 39:240-246 and Gaetano Bacci et al., 2002, Oncology Reports 9: 171-175). The dog completed the first 30-day treatment course followed by a 30-day non-treatment period and started the second treatment course for at least up to day 65. The formulation contained 1 mM mercury acetate in 20 mM sodium acetate buffer, pH 4.5, with 100 mM sucrose and 150 mM sodium chloride additives. It was introduced orally to the dog three times a day at 0.5 micromole Hg^2+/kg/day. […] This drop in ALP level (˜250 Units/month) was significant considering that, prior to starting the mercury (II) treatment, it had been raising at ˜50 U/month rate. As observed by the attending veterinarian, the dog's appetite was increased and the dog gained 5 lbs during that period. […] During this period the condition of the dog worsened and was accompanied by an increase in ALP level (compare Day 32 and Day 65 in Table 3). The dog was euthanized on Day 91.

For `CC(=O)[O-].CC(=O)[O-].[Hg+2]` [inorganic mercury (II), mercury acetate], the “condition of the dog” value (2nd treatment course, formulation administered with food in violation of the protocol) was “worsened”, the “ALT (SGPT)” value (Day 1) was 61 U/L and the “AST (SGOT)” value (Day 1) was 28 U/L. The Albumin (Day 1) was 3.7 g/dL, the “Albumin/Globulin Ratio” value (Day 1) was 1.1 and the “Alkaline Phosphatase (ALP)” value (Day 1) was 794 U/L and 794 (H) U/L. For the same compound, the Amylase (Day 1) was 862 U/L, the “BUN/Creatinine Ratio” value (Day 1) was 9 and the Bands (Day 1) was 0. For the same compound, the “Basophils, absolute” value (Day 1) was 0, the CPK (Day 1) was 175 U/L and the Calcium (Day 1) was 10.6 mg/dL. The Chloride (Day 1) was 116 mE/L, the Cholesterol (Day 1) was 240 mg/dL and the Creatinine (Day 1) was 1.2 mg/dL. The “Eosinophils, (%)” value (Day 1) was 7%, the “Eosinophils, absolute” value (Day 1) was 770 and the Globulin (Day 1) was 3.4 g/dL. The Glucose (Day 1) was 77 mg/dL, the Hematocrit (Day 1) was 41.3% and the Hemoglobin (Day 1) was 13.7 g/dL. For the same compound, the “Lymphocytes, (%)” value (Day 1) was 26%, the “Lymphocytes, absolute” value (Day 1) was 2860 and the MCH (Day 1) was 22.2. For the same compound, the MCHC (Day 1) was 33.2, the MCV (Day 1) was 67 and the “Monocytes, (%)” value (Day 1) was 6%. The “Monocytes, absolute” value (Day 1) was 660, the “Neutrophils, (%)” value (Day 1) was 61% and the “Neutrophils, absolute” value (Day 1) was 6710. For the same compound, the Phosphorus (Day 1) was 5.4 mg/dL, the Platelet count (Day 1) was 475 (H) 10^3/microl and the Potassium (Day 1) was 5.2 mE/L. For the same compound, the RBC (Day 1) was 6.16 10^6/microl, the Sodium (Day 1) was 152 mE/L and the “Total Billirubin” value (Day 1) was 0.1 mg/dL. For the same compound, the “Total Protein” value (Day 1) was 7.1 g/dL, the “Urea Nitrogen” value (Day 1) was 11 mg/dL and the WBC (Day 1) was 11.0 10^3/microl. For the same compound, the “drop in ALP level” value (Day 1 to Day 32, first treatment course) was ~250 Units/month, the “ALT (SGPT)” value (Day 32) was 61 U/L and the “AST (SGOT)” value (Day 32) was 27 U/L. For the same compound, the Albumin (Day 32) was 3.5 g/dL, the “Albumin/Globulin Ratio” value (Day 32) was 1.1 and the “Alkaline Phosphatase (ALP)” value (Day 32) was 539 U/L and 539 (H) U/L. The Amylase (Day 32) was 864 U/L, the “BUN/Creatinine Ratio” value (Day 32) was 12 and the Bands (Day 32) was 0. For the same compound, the CPK (Day 32) was 198 U/L, the Calcium (Day 32) was 10.5 mg/dL and the Chloride (Day 32) was 118 mE/L. The Cholesterol (Day 32) was 251 mg/dL, the Creatinine (Day 32) was 1.3 mg/dL and the “Eosinophils, (%)” value (Day 32) was 5%. For the same compound, the “Eosinophils, absolute” value (Day 32) was 495, the Globulin (Day 32) was 3.3 g/dL and the Glucose (Day 32) was 102 mg/dL. For the same compound, the Hematocrit (Day 32) was 39.1%, the Hemoglobin (Day 32) was 13.9 g/dL and the “Lymphocytes, (%)” value (Day 32) was 35%. The “Lymphocytes, absolute” value (Day 32) was 3465, the MCH (Day 32) was 24.6 and the MCHC (Day 32) was 35.5. For the same compound, the MCV (Day 32) was 69, the “Monocytes, (%)” value (Day 32) was 5% and the “Monocytes, absolute” value (Day 32) was 495. The “Neutrophils, (%)” value (Day 32) was 55%, the “Neutrophils, absolute” value (Day 32) was 5445 and the Phosphorus (Day 32) was 5.5 mg/dL. The Platelet count (Day 32) was 213 10^3/microl, the Potassium (Day 32) was 5.2 mE/L and the RBC (Day 32) was 5.64 10^6/microl. For the same compound, the Sodium (Day 32) was 146 mE/L, the “Total Billirubin” value (Day 32) was 0.2 mg/dL and the “Total Protein” value (Day 32) was 6.8 g/dL. The “Urea Nitrogen” value (Day 32) was 16 mg/dL, the WBC (Day 32) was 9.9 10^3/microl and the “ALT (SGPT)” value (Day 65) was 62 U/L. For the same compound, the “AST (SGOT)” value (Day 65) was 30 U/L, the Albumin (Day 65) was 3.8 g/dL and the “Albumin/Globulin Ratio” value (Day 65) was 1.0. For the same compound, the “Alkaline Phosphatase (ALP)” value (Day 65) was 606 (H) U/L, the Amylase (Day 65) was 1003 U/L and the “BUN/Creatinine Ratio” value (Day 65) was 13. The Bands (Day 65) was 0, the “Basophils, absolute” value (Day 65) was 0 and the CPK (Day 65) was 171 U/L. It also gave a Calcium (Day 65) of 10.9 mg/dL, a Chloride (Day 65) of 113 mE/L and a Cholesterol (Day 65) of 244 mg/dL. The Creatinine (Day 65) was 1.2 mg/dL, the “Eosinophils, (%)” value (Day 65) was 8% and the “Eosinophils, absolute” value (Day 65) was 808. For the same compound, the Globulin (Day 65) was 3.8 (H) g/dL, the Glucose (Day 65) was 87 mg/dL and the Hematocrit (Day 65) was 42.3%. For the same compound, the Hemoglobin (Day 65) was 16.1 g/dL, the “Lymphocytes, (%)” value (Day 65) was 33% and the “Lymphocytes, absolute” value (Day 65) was 3333. For the same compound, the MCH (Day 65) was 24.8, the MCHC (Day 65) was 38.1 (H) and the MCV (Day 65) was 65. The “Monocytes, (%)” value (Day 65) was 4%, the “Monocytes, absolute” value (Day 65) was 404 and the “Neutrophils, (%)” value (Day 65) was 55%. For the same compound, the “Neutrophils, absolute” value (Day 65) was 5555, the Phosphorus (Day 65) was 5.1 mg/dL and the Platelet count (Day 65) was 368 10^3/microl. For the same compound, the Potassium (Day 65) was 4.6 mE/L, the RBC (Day 65) was 6.49 10^6/microl and the Sodium (Day 65) was 150 mE/L. The “Total Billirubin” value (Day 65) was 0.1 mg/dL, the “Total Protein” value (Day 65) was 7.5 (H) g/dL and the “Urea Nitrogen” value (Day 65) was 15 mg/dL. For the same compound, the WBC (Day 65) was 10.1 10^3/microl, the weight gained (first 30 days of treatment) was 5 lbs and the appetite (first 30 days of treatment, observed by attending veterinarian) was “increased”.
